How the values were obtained:
Assay in all cases: relative viability (nuclei count vs DMSO), 5 days (fraction); higher = more cells survive
Dovitinib + Palbociclib = compound: CN1CCN(c2ccc3nc(-c4c(N)c5c(F)cccc5[nH]c4=O)[nH]c3c2)CC1 [Dovitinib] + CC(=O)c1c(C)c2cnc(Nc3ccc(N4CCNCC4)cn3)nc2n(C2CCCC2)c1=O [Palbociclib] (partner 0.5 µM)
How it was run: (§1)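 Relative viability was taken as the ratio of nuclei in treated wells to nuclei in vehicle wells. Lung cancer cell lines in 1536-well plates received compounds by pin tool one day after seeding, either one drug alone or a fixed anchor-drug dose plus five library-drug doses (not always all listed) in √10 steps. Nuclei were counted on 4× images after 5 days of treatment, and values are medians of duplicate plates.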

Dovitinib + Dasatinib = compound: CN1CCN(c2ccc3nc(-c4c(N)c5c(F)cccc5[nH]c4=O)[nH]c3c2)CC1 [Dovitinib] + Cc1nc(Nc2ncc(C(=O)Nc3c(C)cccc3Cl)s2)cc(N2CCN(CCO)CC2)n1 [Dasatinib] (partner 0.075 µM)
How it was run: as §1

Dovitinib + Luminespib = compound: CN1CCN(c2ccc3nc(-c4c(N)c5c(F)cccc5[nH]c4=O)[nH]c3c2)CC1 [Dovitinib] + CCNC(=O)c1noc(-c2cc(C(C)C)c(O)cc2O)c1-c1ccc(CN2CCOCC2)cc1 [Luminespib] (partner 0.01 µM)
How it was run: as §1

Dovitinib + Bortezomib = compound: CN1CCN(c2ccc3nc(-c4c(N)c5c(F)cccc5[nH]c4=O)[nH]c3c2)CC1 [Dovitinib] + CC(C)C[C@H](NC(=O)[C@H](Cc1ccccc1)NC(=O)c1cnccn1)B(O)O [Bortezomib] (partner 0.002 µM)
How it was run: as §1

| Cell Line | relative viability (Dovitinib + Palbociclib; first compound 0.02 µM) | relative viability (Dovitinib + Palbociclib; first compound 0.06325 µM) | relative viability (Dovitinib + Palbociclib; first compound 0.2 µM) | relative viability (Dovitinib + Palbociclib; first compound 0.6325 µM) | relative viability (Dovitinib + Palbociclib; first compound 2 µM) | relative viability (Dovitinib + Dasatinib; first compound 0.02 µM) | relative viability (Dovitinib + Dasatinib; first compound 0.06325 µM) | relative viability (Dovitinib + Dasatinib; first compound 0.2 µM) | relative viability (Dovitinib + Dasatinib; first compound 0.6325 µM) | relative viability (Dovitinib + Dasatinib; first compound 2 µM) | relative viability (Dovitinib + Luminespib; first compound 0.02 µM) | relative viability (Dovitinib + Luminespib; first compound 0.06325 µM) | relative viability (Dovitinib + Luminespib; first compound 0.2 µM) | relative viability (Dovitinib + Luminespib; first compound 0.6325 µM) | relative viability (Dovitinib + Luminespib; first compound 2 µM) | relative viability (Dovitinib + Bortezomib; first compound 0.02 µM) | relative viability (Dovitinib + Bortezomib; first compound 0.06325 µM) | relative viability (Dovitinib + Bortezomib; first compound 0.2 µM) | relative viability (Dovitinib + Bortezomib; first compound 0.6325 µM) | relative viability (Dovitinib + Bortezomib; first compound 2 µM) |
| --- | --- | --- | --- | --- | --- | --- | --- | --- | --- | --- | --- | --- | --- | --- | --- | --- | --- | --- | --- | --- |
| COR-L 105 | 0.434 | 0.421 | 0.46 | 0.419 | 0.427 | 0.34 | 0.34 | 0.332 | 0.439 | 0.393 | 0.77 | 0.84 | 0.78 | 0.82 | 0.81 | 0.779 | 0.666 | 0.86 | 0.84 | 0.965 |
| LK-2 | 0.648 | 0.734 | 0.676 | 0.646 | 0.854 | 0.282 | 0.242 | 0.281 | 0.325 | 0.396 | 0.191 | 0.162 | 0.179 | 0.219 | 0.182 |  |  |  |  |  |
| NCI-H727 | 0.667 | 0.62 | 0.669 | 0.671 | 0.668 | 0.482 | 0.393 | 0.422 | 0.395 | 0.385 | 0.272 | 0.373 | 0.285 | 0.322 | 0.373 | 0.937 | 0.733 | 0.92 | 0.845 | 1.27 |
| RERF-LC-KJ | 1.09 | 1 | 1.08 | 1.1 | 1.01 | 0.842 | 0.842 | 0.998 | 0.765 | 0.915 | 1.32 | 1.25 | 1.4 | 1.19 | 1.47 | 1.11 | 1.14 | 1.14 | 1.06 | 0.997 |
| NCI-H2023 | 0.357 | 0.359 | 0.388 | 0.345 | 0.359 | 0.56 | 0.565 | 0.612 | 0.578 | 0.58 | 0.853 | 0.627 | 0.809 | 0.897 | 0.833 | 0.994 | 0.963 | 1.24 | 0.995 | 0.886 |
| NCI-H322M | 0.46 | 0.471 | 0.468 | 0.482 | 0.487 | 0.24 | 0.263 | 0.243 | 0.249 | 0.284 | 0.835 | 0.883 | 0.831 | 0.803 | 0.792 | 1.21 | 1.21 | 1.19 | 1.12 | 1.16 |
| NCI-H1666 | 0.698 | 0.657 | 0.677 | 0.625 | 0.669 | 0.767 | 0.839 | 0.845 | 0.799 | 0.762 | 1.02 | 0.991 | 1.07 | 0.997 | 0.972 | 1 | 0.87 | 0.968 | 0.792 | 0.842 |
| NCI-H1648 | 0.325 | 0.287 | 0.235 | 0.247 | 0.255 |  |  |  |  |  |  |  |  |  |  |  |  |  |  |  |
| NCI-H2087 | 0.276 | 0.229 | 0.191 | 0.197 | 0.255 | 0.836 | 0.847 | 0.869 | 0.889 | 0.98 | 0.148 | 0.155 | 0.184 | 0.212 | 0.137 | 0.756 | 1.07 | 0.805 | 0.899 | 0.86 |
| LU99A | 0.388 | 0.37 | 0.387 | 0.423 | 0.406 | 0.508 | 0.448 | 0.572 | 0.517 | 0.46 | 0.243 | 0.221 | 0.27 | 0.282 | 0.254 | 1.15 | 1.08 | 0.987 | 1.05 | 1.32 |
| HCC-366 | 0.377 | 0.364 | 0.372 | 0.396 | 0.402 | 0.687 | 0.604 | 0.648 | 0.616 | 0.618 |  |  |  |  |  | 1.08 | 1.06 | 0.987 | 1.06 | 0.999 |
| EKVX | 0.394 | 0.378 | 0.511 | 0.412 | 0.364 | 0.517 | 0.662 | 0.588 | 0.61 | 0.611 | 0.914 | 0.901 | 0.882 | 0.89 | 0.866 | 1.08 | 1.08 | 1.22 | 1.06 | 1.08 |
| NCI-H522 | 1.07 | 1.05 | 0.972 | 1.19 | 1.06 | 0.857 | 0.867 | 0.93 | 0.706 | 0.887 | 1.15 | 0.989 | 1.01 | 1.19 | 1.07 |  |  |  |  |  |
| NCI-H1755 | 0.47 | 0.427 | 0.479 | 0.463 | 0.471 | 0.446 | 0.388 | 0.45 | 0.393 | 0.443 | 0.41 | 0.305 | 0.417 | 0.54 | 0.508 | 0.97 | 0.923 | 0.957 | 0.928 | 0.955 |
| NCI-H647 | 0.337 | 0.427 | 0.378 | 0.402 | 0.431 | 0.151 | 0.152 | 0.209 | 0.171 | 0.21 | 0.16 | 0.192 | 0.127 | 0.183 | 0.179 | 0.993 | 1.08 | 1.13 | 0.897 | 0.667 |
| LC-2-ad | 0.484 | 0.449 | 0.472 | 0.484 | 0.504 | 0.661 | 0.524 | 0.55 | 0.514 | 0.429 | 0.991 | 0.994 | 1.01 | 0.979 | 0.995 | 1.08 | 0.983 | 1.02 | 1.06 | 0.789 |
| NCI-H1793 | 0.365 | 0.297 | 0.311 | 0.299 | 0.311 | 0.458 | 0.364 | 0.367 | 0.385 | 0.503 | 0.199 | 0.164 | 0.165 | 0.211 | 0.167 |  |  |  |  |  |
| HCC-827 | 0.527 | 0.461 | 0.409 | 0.53 | 0.528 | 0.358 | 0.327 | 0.357 | 0.366 | 0.407 | 0.854 | 0.676 | 0.596 | 0.509 | 0.717 | 1.08 | 1.07 | 1.04 | 1.09 | 1.05 |

From the supplement of paper PMC10307832
